Measured values taken from PubChem BioAssay AID1919002 (Molecular Pharmacology Branch, DTP, NCI, 2023).

Tested on: 743489-274-T-PDC complex spheroid growth
Experiment: Anticancer human tumor 743489-274-T-PDC patient-derived renal cell carcinoma cell line growth inhibition [AhR]
Settings: for IC50: curve of first compound; for viability, T/C: stronger effect = lower value
Outline: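 Complex tumor spheroids co-cultured with HUVEC and human MSC stroma; AhR antagonists tested in combination with standard-of-care and investigational agents. Top concentration at or near clinical Cmax (else 10 microM), half-log dilutions; growth expressed as percent test/control.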

[1] = second compound 0.1 µM, first compound 0.0316 µM
[2] = second compound 0.1 µM, first compound 0.1 µM
[3] = second compound 0.1 µM, first compound 0.316 µM
[4] = second compound 0.1 µM, first compound 1 µM
[5] = second compound 0.1 µM, first compound 3.16 µM
[6] = second compound 0.1 µM, first compound 10 µM
[7] = second compound 0.316 µM, first compound 0.0316 µM
[8] = second compound 0.316 µM, first compound 0.1 µM
[9] = second compound 0.316 µM, first compound 0.316 µM
[10] = second compound 0.316 µM, first compound 1 µM
[11] = second compound 0.316 µM, first compound 3.16 µM
[12] = second compound 0.316 µM, first compound 10 µM
[13] = second compound 1 µM, first compound 0.0316 µM
[14] = second compound 1 µM, first compound 0.1 µM
[15] = second compound 1 µM, first compound 0.316 µM
[16] = second compound 1 µM, first compound 1 µM
[17] = second compound 1 µM, first compound 3.16 µM
[18] = second compound 1 µM, first compound 10 µM
[19] = second compound 3.16 µM, first compound 0.0316 µM
[20] = second compound 3.16 µM, first compound 0.1 µM
[21] = second compound 3.16 µM, first compound 0.316 µM
[22] = second compound 3.16 µM, first compound 1 µM
[23] = second compound 3.16 µM, first compound 3.16 µM
[24] = second compound 3.16 µM, first compound 10 µM
[25] = second compound 10 µM, first compound 0.0316 µM
[26] = second compound 10 µM, first compound 0.1 µM
[27] = second compound 10 µM, first compound 0.316 µM
[28] = second compound 10 µM, first compound 1 µM
[29] = second compound 10 µM, first compound 3.16 µM
[30] = second compound 10 µM, first compound 10 µM
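Further: spheroids exposed to agents for 7 days before readout.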
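Wherever viability, T/C is given: 100% = DMSO vehicle control wells.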

CC(C)c1c(-c2ccccc2)nc2c(C#N)c[nH]n2c1=O + CC(CO)NC(=O)c1cc(-c2ccc(Cl)cc2)nn(-c2cnn(C)c2)c1=O
IC50 (second compound 0.1 µM): > 10 µM | IC50 (second compound 0.316 µM): > 10 µM | IC50 (second compound 1 µM): > 10 µM | IC50 (second compound 3.16 µM): > 10 µM | IC50 (second compound 10 µM): > 10 µM | viability, T/C [1]: 101% | viability, T/C [2]: 96.5% | viability, T/C [3]: 101% | viability, T/C [4]: 111% | viability, T/C [5]: 93.9% | viability, T/C [6]: 102% | viability, T/C [7]: 93% | viability, T/C [8]: 97.9% | viability, T/C [9]: 99.2% | viability, T/C [10]: 93.2% | viability, T/C [11]: 90.4% | viability, T/C [12]: 102% | viability, T/C [13]: 94.7% | viability, T/C [14]: 90.3% | viability, T/C [15]: 97.5% | viability, T/C [16]: 90.2% | viability, T/C [17]: 102% | viability, T/C [18]: 101% | viability, T/C [19]: 90% | viability, T/C [20]: 99.5% | viability, T/C [21]: 99.9% | viability, T/C [22]: 96.6% | viability, T/C [23]: 98.3% | viability, T/C [24]: 95% | viability, T/C [25]: 98.9% | viability, T/C [26]: 101% | viability, T/C [27]: 99.7% | viability, T/C [28]: 95.7% | viability, T/C [29]: 95.1% | viability, T/C [30]: 93.8%

CC1COCCN1c1cc(-c2ccnn2C)c2ccnc(-c3ccn[nH]3)c2n1 (stereo not given) + CC(CO)NC(=O)c1cc(-c2ccc(Cl)cc2)nn(-c2cnn(C)c2)c1=O
IC50 (second compound 0.1 µM): > 1 µM | IC50 (second compound 0.316 µM): > 1 µM | IC50 (second compound 1 µM): > 1 µM | IC50 (second compound 3.16 µM): > 1 µM | IC50 (second compound 10 µM): > 1 µM | viability, T/C (second compound 0.1 µM, first compound 0.00316 µM): 105% | viability, T/C (second compound 0.1 µM, first compound 0.01 µM): 97.6% | viability, T/C [1]: 99.9% | viability, T/C [2]: 91.4% | viability, T/C [3]: 99.2% | viability, T/C [4]: 88.8% | viability, T/C (second compound 0.316 µM, first compound 0.00316 µM): 92% | viability, T/C (second compound 0.316 µM, first compound 0.01 µM): 97.7% | viability, T/C [7]: 93.9% | viability, T/C [8]: 97.2% | viability, T/C [9]: 93.4% | viability, T/C [10]: 71.5% | viability, T/C (second compound 1 µM, first compound 0.00316 µM): 87.6% | viability, T/C (second compound 1 µM, first compound 0.01 µM): 90% | viability, T/C [13]: 93.4% | viability, T/C [14]: 96.2% | viability, T/C [15]: 88.9% | viability, T/C [16]: 81.8% | viability, T/C (second compound 3.16 µM, first compound 0.00316 µM): 112% | viability, T/C (second compound 3.16 µM, first compound 0.01 µM): 91.7% | viability, T/C [19]: 105% | viability, T/C [20]: 92.2% | viability, T/C [21]: 88.5% | viability, T/C [22]: 65.6% | viability, T/C (second compound 10 µM, first compound 0.00316 µM): 112% | viability, T/C (second compound 10 µM, first compound 0.01 µM): 91.8% | viability, T/C [25]: 92.1% | viability, T/C [26]: 93.2% | viability, T/C [27]: 95.9% | viability, T/C [28]: 76.8%

COc1ccc([C@@H](O)c2cc(-c3ncnc4cc(N5CCOCC5)ccc34)c(F)cc2Cl)nn1 + CC(CO)NC(=O)c1cc(-c2ccc(Cl)cc2)nn(-c2cnn(C)c2)c1=O
IC50 (second compound 0.1 µM): 3.1 µM | IC50 (second compound 0.316 µM): 3.68 µM | IC50 (second compound 1 µM): 3.25 µM | IC50 (second compound 3.16 µM): 2.6 µM | IC50 (second compound 10 µM): 2.73 µM | viability, T/C [1]: 103% | viability, T/C [2]: 96.8% | viability, T/C [3]: 92.4% | viability, T/C [4]: 86% | viability, T/C [5]: 48.8% | viability, T/C [6]: 28.8% | viability, T/C [7]: 86% | viability, T/C [8]: 87.8% | viability, T/C [9]: 89.4% | viability, T/C [10]: 78.2% | viability, T/C [11]: 54% | viability, T/C [12]: 25.2% | viability, T/C [13]: 87.9% | viability, T/C [14]: 89.4% | viability, T/C [15]: 88.2% | viability, T/C [16]: 77.9% | viability, T/C [17]: 50.7% | viability, T/C [18]: 25.5% | viability, T/C [19]: 92.3% | viability, T/C [20]: 81.7% | viability, T/C [21]: 87.3% | viability, T/C [22]: 73.9% | viability, T/C [23]: 45% | viability, T/C [24]: 25.7% | viability, T/C [25]: 101% | viability, T/C [26]: 92% | viability, T/C [27]: 93.8% | viability, T/C [28]: 79.3% | viability, T/C [29]: 45.5% | viability, T/C [30]: 20.9%

O=C(C=Cn1cnc(-c2cc(C(F)(F)F)cc(C(F)(F)F)c2)n1)NNc1cnccn1 + CC(CO)NC(=O)c1cc(-c2ccc(Cl)cc2)nn(-c2cnn(C)c2)c1=O
IC50 (second compound 0.1 µM): > 3 µM | IC50 (second compound 0.316 µM): > 3 µM | IC50 (second compound 1 µM): > 3 µM | IC50 (second compound 3.16 µM): > 3 µM | IC50 (second compound 10 µM): > 3 µM | viability, T/C (second compound 0.1 µM, first compound 0.00949 µM): 108% | viability, T/C (second compound 0.1 µM, first compound 0.03 µM): 102% | viability, T/C (second compound 0.1 µM, first compound 0.0949 µM): 111% | viability, T/C (second compound 0.1 µM, first compound 0.3 µM): 122% | viability, T/C (second compound 0.1 µM, first compound 0.949 µM): 114% | viability, T/C (second compound 0.1 µM, first compound 3 µM): 98.3% | viability, T/C (second compound 0.316 µM, first compound 0.00949 µM): 86.7% | viability, T/C (second compound 0.316 µM, first compound 0.03 µM): 103% | viability, T/C (second compound 0.316 µM, first compound 0.0949 µM): 117% | viability, T/C (second compound 0.316 µM, first compound 0.3 µM): 115% | viability, T/C (second compound 0.316 µM, first compound 0.949 µM): 101% | viability, T/C (second compound 0.316 µM, first compound 3 µM): 90.3% | viability, T/C (second compound 1 µM, first compound 0.00949 µM): 94% | viability, T/C (second compound 1 µM, first compound 0.03 µM): 109% | viability, T/C (second compound 1 µM, first compound 0.0949 µM): 101% | viability, T/C (second compound 1 µM, first compound 0.3 µM): 123% | viability, T/C (second compound 1 µM, first compound 0.949 µM): 116% | viability, T/C (second compound 1 µM, first compound 3 µM): 94.1% | viability, T/C (second compound 3.16 µM, first compound 0.00949 µM): 96.7% | viability, T/C (second compound 3.16 µM, first compound 0.03 µM): 101% | viability, T/C (second compound 3.16 µM, first compound 0.0949 µM): 112% | viability, T/C (second compound 3.16 µM, first compound 0.3 µM): 129% | viability, T/C (second compound 3.16 µM, first compound 0.949 µM): 105% | viability, T/C (second compound 3.16 µM, first compound 3 µM): 86.1% | viability, T/C (second compound 10 µM, first compound 0.00949 µM): 96.3% | viability, T/C (second compound 10 µM, first compound 0.03 µM): 110% | viability, T/C (second compound 10 µM, first compound 0.0949 µM): 104% | viability, T/C (second compound 10 µM, first compound 0.3 µM): 116% | viability, T/C (second compound 10 µM, first compound 0.949 µM): 94.9% | viability, T/C (second compound 10 µM, first compound 3 µM): 91.3%
